Experimental data published in USRE39087E1, “Azithromycin monohydrate isopropanol clathrate and methods for the manufacture thereof” (Apotex, Inc., priority 1998, dated 2006).
Like-named read-outs stand apart in the source and are kept apart here.

Tests used:
[1] = solid form, known from prior patents (EP 298 650 B1, CA 1,314,876), cited from earlier work
[2] = Hygroscopicity of azithromycin forms; type: physicochemical; conditions: solid form
[3] = Extended vacuum drying, water (Karl-Fischer) and isopropanol (gas chromatography) content; type: physicochemical; conditions: vacuum 1-10 mm Hg, 50° C. to 60° C., beyond 12-24 hours
Protocol: According to this invention, azithromycin monohydrate isopropanol clathrate contains three molecules of isopropanol for every ten molecules of azithromycin monohydrate. The process comprises the dissolution of azithromycin in isopropanol to which water is added slowly while stirring, resulting in the precipitation of crystalline azithromycin monohydrate isopropanol clathrate. The volume of solvent used is such as to be sufficient to dissolve azithromycin. The addition of the water is carried out between 0° and 30° C. and preferably between 15° C. to 25° C. The product is filtered and washed with a mixture of water-isopropanol and dried under vacuum (1-10 mm Hg) at 50° C. to 60° C. for 12-24 hours to obtain azithromycin monohydrate isopropanol clathrate in high yields. […] The water content of azithromycin monohydrate isopropanol clathrate was measured by the Karl-Fischer method and its isopropanol content was determined by gas chromatography.

CC[C@H]1OC(=O)[C@H](C)[C@@H](O[C@H]2C[C@@](C)(OC)[C@@H](O)[C@H](C)O2)[C@H](C)[C@@H](O[C@@H]2O[C@H](C)C[C@H](N(C)C)[C@H]2O)[C@](C)(O)C[C@@H](C)CN(C)[C@H](C)[C@@H](O)[C@]1(C)O [Azithromycin monohydrate, azithromycin monohydrate]
hygroscopicity ([1]; monohydrate): hygroscopic

CC[C@H]1OC(=O)[C@H](C)[C@@H](O[C@H]2C[C@@](C)(OC)[C@@H](O)[C@H](C)O2)[C@H](C)[C@@H](O[C@@H]2O[C@H](C)C[C@H](N(C)C)[C@H]2O)[C@](C)(O)C[C@@H](C)CN(C)[C@H](C)[C@@H](O)[C@]1(C)O [azithromycin dihydrate]
hygroscopicity ([1]; dihydrate): not hygroscopic

azithromycin monohydrate isopropanol clathrate
hygroscopicity [2]: not hygroscopic
effect of extension of vacuum drying on water and isopropanol content [3]: does not reduce either the water content or the isopropanol content
